Data reported in US20040097594A1 (priority 1998, published 2004).
Read-outs that look alike come from different tables or passages of the source.

Assays:
HIV-1 (strain IIIB) = assay: microbe, parasite or virus in culture; format: cell-based; conditions: Human immunodeficiency virus 1, 120 h; MT4 cells infected with HIV-1 strain IIIB, 5 days; lower line of each compound's entry; read-out: IC50 (MT-4 cells)
HIV-1 protease = HIV-1 protease (Human immunodeficiency virus type 1 group M subtype B, UniProt P04585); assay: biochemical
[1] = HIV-1 protease, upper line of each compound's entry, read-out: Ki (enzyme)

Compound | IC50 (HIV-1 (strain IIIB)) | Ki (HIV-1 protease; [1]) | Ki (HIV-1 protease)
CONC(=O)CNc1cccc(S(=O)(=O)N(CC(O)C(Cc2ccccc2)NC(=O)OC2COC3OCCC23)OC2CCCC2)c1 (mixture of isomers) [Example 168, (3R,3aS,6aR)hexahydrofuro[2,3-b]furan-3-yl N-[(1S,2R)-1-benzyl-3-((cyclopentyloxy)[3-(2-[methoxyamino]-2-oxoethylamino)phenyl]sulfonylamino)-2-hydroxypropyl]carbamate and (3S,3aR,6aS)hexahydrofuro[2,3-b]furan-3-yl N-[(1S,2R)-1-benzyl-3-((cyclopentyloxy)[3-(2-[methoxyamino]-2-oxoethylamino)phenyl]sulfonylamino)-2-hydroxypropyl]carbamate] | ≤ 100 nM | < 1 nM | –
CCN(C)C(=O)CNc1cccc(S(=O)(=O)N(CC(O)C(Cc2ccccc2)NC(=O)OC2COC3OCCC23)OC2CCCC2)c1 (mixture of isomers) [Example 170, (3R,3aS,6aR)hexahydrofuro[2,3-b]furan-3-yl N-[(1S,2R)-1-benzyl-3-((cyclopentyloxy)[3-(2-[ethyl(methyl)amino]-2-oxoethylamino)phenyl]sulfonylamino)-2-hydroxypropyl)carbamate and (3S,3aR,6aS)hexahydrofuro[2,3-b]furan-3-yl N-[(1S,2R)-1-benzyl-3-((cyclopentyloxy)[3-(2-[ethyl(methyl)amino]-2-oxoethylamino)phenyl]sulfonylamino)-2-hydroxypropyl]carbamate] | ≤ 100 nM | < 1 nM | –
Nc1cccc(S(=O)(=O)N(C[C@@H](O)[C@H](Cc2ccccc2)NC(=O)O[C@H]2CO[C@H]3OCC[C@H]32)OC2CCCC2)c1 (single isomer, unassigned) [Compound 77] | ≤ 100 nM | < 1 nM | –
O=C(N[C@@H](Cc1ccccc1)[C@H](O)CC(OC1CCCC1)S(=O)(=O)c1ccc2nccnc2c1)OC1CCOC1 (stereo in doubt) [Compound 110, (3S)tetrahydro-3-furanyl N-[(1S,2R)-1-benzyl-4-(cyclopentyloxy)-2-hydroxy-4-(6-quinoxalinylsulfonyl)butyl]carbamate] | 100 to 500 nM | < 1 nM | –
CC(C)ON(C[C@@H](O)[C@H](Cc1ccccc1)NC(=O)OC(C)(C)C)S(=O)(=O)c1cccc(N)c1 [Compound 1] | > 1000 nM | 10 to 100 nM | –
CC(C)ON(C[C@@H](O)[C@H](Cc1ccccc1)NC(=O)OC(C)(C)C)S(=O)(=O)c1ccc(N)c(N)c1 [Compound 2] | > 1000 nM | 10 to 100 nM | –
CC(C)ON(C[C@@H](O)[C@H](Cc1ccccc1)NC(=O)OC(C)(C)C)S(=O)(=O)c1ccc2[nH]cnc2c1 [Compound 3] | > 1000 nM | 10 to 100 nM | –
CC(C)ON(C[C@@H](O)[C@H](Cc1ccccc1)NC(=O)OC(C)(C)C)S(=O)(=O)c1ccc2[nH]c(=O)[nH]c2c1 [Compound 4] | > 1000 nM | 10 to 100 nM | –
CC(C)ON(C[C@@H](O)[C@H](Cc1ccccc1)NC(=O)OC(C)(C)C)S(=O)(=O)c1ccc2[nH]c(NS(C)(=O)=O)nc2c1 [Compound 5] | 500 to 1000 nM | 1 to 10 nM | –
COc1ccc(S(=O)(=O)N(C[C@@H](O)[C@H](Cc2ccccc2)NC(=O)OC(C)(C)C)OC(C)C)cc1 [Compound 6] | > 1000 nM | – | 10 to 100 nM
COc1ccc(S(=O)(=O)N(C[C@@H](O)[C@H](Cc2ccccc2)NC(=O)OC(C)(C)C)OC2CCCC2)cc1 [Compound 7] | > 1000 nM | – | 1 to 10 nM
CC(C)(C)OC(=O)N[C@@H](Cc1ccccc1)[C@H](O)CN(OC1CCCC1)S(=O)(=O)c1ccc2[nH]c(NC(=O)N3CCOCC3)nc2c1 [Compound 8] | 500 to 1000 nM | < 1 nM | –
CC(C)(C)OC(=O)N[C@@H](Cc1ccccc1)[C@H](O)CN(OC1CCCC1)S(=O)(=O)c1cccc(N)c1 [Compound 11, tert-butyl N-(1S,2R)-3-[[(3-aminophenyl)sulfonyl](cyclopentyloxy)amino]-1-benzyl-2-hydroxypropylcarbamate] | > 1000 nM | 1 to 10 nM | –
CN(C)C(=O)Nc1nc2cc(S(=O)(=O)N(C[C@@H](O)[C@H](Cc3ccccc3)NC(=O)OC(C)(C)C)OC3CCCC3)ccc2[nH]1 [Compound 14, Tert-butyl N-(1S,2R)-1-benzyl-3-[(cyclopentyloxy)(2-[(dimethylamino-carbonyl)amino]-1H-benzimidazol-5-ylsulfonyl)amino]-2-hydroxypropylcarbamate] | 100 to 500 nM | < 1 nM | –
CCC(C)ON(C[C@@H](O)[C@H](Cc1ccccc1)NC(=O)OC(C)(C)C)S(=O)(=O)c1ccc(OC)cc1 (stereo partly drawn) [Compound 15, tert-butyl N-((1S,2R)-1-benzyl-3-sec-butoxy[(4-methoxyphenyl)sulfonyl]amino-2-hydroxypropyl)carbamate] | > 1000 nM | 1 to 10 nM | –
COc1ccc(S(=O)(=O)N(C[C@@H](O)[C@H](Cc2ccccc2)NC(=O)OC(C)(C)C)OCC2CCCCC2)cc1 [Compound 16, tert-butyl N-((1S,2R)-1-benzyl-3-(cyclohexylmethoxy)[(4-methoxyphenyl)sulfonyl]amino-2-hydroxypropyl)carbamate] | > 1000 nM | 10 to 100 nM | –
COc1ccc(S(=O)(=O)N(C[C@@H](O)[C@H](Cc2ccccc2)NC(=O)OC(C)(C)C)Oc2ccccc2)cc1 [Compound 17, tert-butyl N-(1S,2R)-1-benzyl-2-hydroxy-3-[[(4-methoxyphenyl)sulfonyl](phenoxy)amino]propylcarbamate] | > 1000 nM | 10 to 100 nM | –
COc1ccc(S(=O)(=O)N(C[C@@H](O)[C@H](Cc2ccccc2)NC(=O)OC(C)(C)C)OC2CCOCC2)cc1 [Compound 18, tert-butyl N-(1S,2R)-1-benzyl-2-hydroxy-3-[[(4-methoxyphenyl)sulfonyl](tetrahydro-2H-pyran-4-yloxy)amino]propylcarbamate] | > 1000 nM | 1 to 10 nM | –
COc1ccc(S(=O)(=O)N(C[C@@H](O)[C@H](Cc2ccccc2)NC(=O)OC(C)(C)C)OCC2CCCCO2)cc1 (stereo partly drawn) [Compound 19, tert-butyl N-(1S,2R)-1-benzyl-2-hydroxy-3-[[(4-methoxyphenyl)sulfonyl](tetrahydro-2H-pyran-2-ylmethoxy)amino]propylcarbamate] | > 1000 nM | 10 to 100 nM | –
COc1ccc(S(=O)(=O)N(C[C@@H](O)[C@H](Cc2ccccc2)NC(=O)OC(C)(C)C)OC2CCOC2)cc1 (stereo partly drawn) [Compound 20, tert-butyl N-(1S,2R)-1-benzyl-2-hydroxy-3-[[(4-methoxyphenyl)sulfonyl](tetrahydro-3-furanyloxy)amino]propylcarbamate] | > 1000 nM | 1 to 10 nM | –
COc1ccc(S(=O)(=O)N(C[C@@H](O)[C@H](Cc2ccccc2)NC(=O)OC(C)(C)C)OCc2ccccc2)cc1 [Compound 21, tert-butyl N-((1S,2R)-1-benzyl-3-(benzyloxy)[(4-methoxyphenyl)sulfonyl]amino-2-hydroxypropyl)carbamate] | > 1000 nM | 10 to 100 nM | –
COc1ccc(S(=O)(=O)N(C[C@@H](O)[C@H](Cc2ccccc2)NC(=O)OC(C)(C)C)OCC(C)C)cc1 [Compound 22, tert-butyl N-((1S,2R)-1-benzyl-2-hydroxy-3-isobutoxy[(4-methoxyphenyl)sulfonyl]aminopropyl)carbamate] | > 1000 nM | – | 1 to 10 nM
COc1ccc(S(=O)(=O)N(C[C@@H](O)[C@H](Cc2ccccc2)NC(=O)OC(C)(C)C)OC2CCCCC2)cc1 [Compound 23, tert-butyl N-((1S,2R)-1-benzyl-3-(cyclohexyloxy)[(4-methoxyphenyl)sulfonyl]amino-2-hydroxypropyl)carbamate] | > 1000 nM | – | 1 to 10 nM
COc1ccc(S(=O)(=O)N(C[C@@H](O)[C@H](Cc2ccccc2)NC(=O)OCc2ccccc2)OC2CCCC2)cc1 [Compound 24, Phenylmethyl N-((1S,2R)-1-benzyl-3-(cyclopentyloxy)[(4-methoxyphenyl)sulfonyl]amino-2-hydroxypropyl)carbamate] | > 1000 nM | < 1 nM | –
COc1ccc(S(=O)(=O)N(C[C@@H](O)[C@H](Cc2ccccc2)NC(=O)OCc2cccnc2)OC2CCCC2)cc1 [Compound 25, 3-pyridylmethyl N-((1S,2R)-1-benzyl-3-(cyclopentyloxy)[(4-methoxyphenyl)sulfonyl]amino-2-hydroxypropyl)carbamate] | 500 to 1000 nM | < 1 nM | –
COc1ccc(S(=O)(=O)N(C[C@@H](O)[C@H](Cc2ccccc2)NC(=O)c2ccccc2C)OC2CCCC2)cc1 [Compound 26, N^1-((1S,2R)-1-benzyl-3-(cyclopentyloxy)[(4-methoxyphenyl)sulfonyl]amino-2-hydroxypropyl)-2-methylbenzamide] | > 1000 nM | 1 to 10 nM | –
Nc1cccc(S(=O)(=O)N(C[C@@H](O)[C@H](Cc2ccccc2)NC(=O)O[C@H]2CCOC2)OC2CCCC2)c1 [Compound 27, (3S)tetrahydro-3-furanyl N-(1S,2R)-3-[[(3-aminophenyl)sulfonyl](cyclopentyloxy)amino]-1-benzyl-2-hydroxypropylcarbamate] | 500 to 1000 nM | < 1 nM | –
O=C(O)CNc1cccc(S(=O)(=O)N(CC(O)C(Cc2ccccc2)NC(=O)OC2COC3OCCC23)OC2CCCC2)c1 [Compound 35, 2-2-(3-[[(2R,3S)-3-([(3R,3aS,6aR)hexahydrofuro[2,3-b]furan-3-yloxy]carbonylamino)-hydroxy-4-phenylbutyl](cyclopentyloxy)amino]sulfonylanilino)acetic acid and 2-2-(3-[[(2R,3S)-3-([(3S,3aR,6aS)hexahydrofuro[2,3-b]furan-3-yloxy]carbonylamino)-hydroxy-4-phenylbutyl](cyclopentyloxy)amino]sulfonylanilino)acetic acid] | > 1000 nM | < 1 nM | –
